From patent publication US8426447B2, “Spiro-tricyclic ring compounds as beta-secretase modulators and methods of use” (Amgen Inc., priority 2008, dated 2013)
Values belong to the molecule of their own block, whether it stands above or below them.

Assays:
BACE1 [1] = molecular target: T1, BACE1 (Homo sapiens, UniProt P56817); assay: In Vitro Enzymatic BACE FRET (Fluorescence Resonance Energy Transfer) Assay; type: biochemical; conditions: read-out: BACE1 FRET assay
Description: In Vitro Enzymatic BACE FRET (Fluorescence Resonance Energy Transfer) Assay (Enzyme Assay Data in the Example Tables I, II, III & IV) The assay buffer used in this screen is 0.05 M acetate, pH 4.2, 10% DMSO final, 100 uM genapol (which is a nonionic detergent, below its Critical Micelle Concentration). […] This assay is effectively started by the addition of FRET substrate (50 nM) and the combination is incubated for one hour. The FRET assay is terminated with by addition of Tris buffer, which raises the pH to neutrality, and the fluorescence is determined. The FRET substrate is a peptide with commercially available fluorophore and quencher, on opposite sides of the BACE cleavage site. […]

BACE1 [2] = molecular target: T1, BACE1; assay: In Vitro BACE Cell-based Assay (HEK cell assay): Aβ40 in conditioned medium of cells stably expressing Amyloid Precursor Protein, sandwich ELISA; conditions: read-out: HEK cell assay
Description: In Vitro BACE Cell-based Assay
The cell-based assay measures inhibition or reduction of Aβ40 in conditioned medium of test compound treated cells expressing amyloid precursor protein.
Cells stably expressing Amyloid Precursor Protein (APP) were plated at a density of 40K cells/well in 96 well plates (Costar). The cells were cultivated for 24 hours at 37° C. and 5% CO2 in DMEM supplemented with 10% FBS. The test compounds were then added to cells in 10-point dose response concentrations with the starting concentration being either 100 μM or 10 μM. The compounds were diluted from stock solutions in DMSO and the final DMSO concentration of the test compounds on cells was 0.1%. After 24 h of incubation with the test compounds the supernatant conditioned media was collected and the Aβ 40 levels were determined using a sandwich ELISA. The IC50 of the compound was calculated from the percent of control or percent inhibition of Aβ 40 as a function of the concentration of the test compound.
The sandwich ELISA to detect Aβ 40 was performed in 96 well microtiter plates, which were pre-treated with goat anti-rabbit IgG (Pierce). The capture and detecting antibody pair that were used to detect Aβ 40 from cell supernatants were affinity purified pAb40 (Biosource) and biotinylated 6E10 (Signet Labs Inc.), respectively. The optimal concentration for the pAb40 antibody was 3 μg/ml in Superblock/TBS (Pierce) that was supplemented with 0.05% Tween 20 (Sigma).
Cellular supernatants were incubated with the capture antibody for 3 h at 4° C., followed by 3 wash steps in TBS-tween (0.05%). The detecting antibody incubation was for 2 h at 4° C., again followed by the wash steps as described previously. The final readout of the ELISA is Time-Resolved Fluorescence (counts per minute) using Delfia reagents Streptavidin-Europium and Enhancement solutions (Perkin Elmer) and the Victor 2 multilabel counter (Perkin Elmer).

[3] = in vitro BACE FRET enzyme assay, IC50 class symbols
[4] = HEK cell-based assay, Aβ40 in conditioned medium, IC50 class symbols

T1 sequence (P56817 46-501, species assumed): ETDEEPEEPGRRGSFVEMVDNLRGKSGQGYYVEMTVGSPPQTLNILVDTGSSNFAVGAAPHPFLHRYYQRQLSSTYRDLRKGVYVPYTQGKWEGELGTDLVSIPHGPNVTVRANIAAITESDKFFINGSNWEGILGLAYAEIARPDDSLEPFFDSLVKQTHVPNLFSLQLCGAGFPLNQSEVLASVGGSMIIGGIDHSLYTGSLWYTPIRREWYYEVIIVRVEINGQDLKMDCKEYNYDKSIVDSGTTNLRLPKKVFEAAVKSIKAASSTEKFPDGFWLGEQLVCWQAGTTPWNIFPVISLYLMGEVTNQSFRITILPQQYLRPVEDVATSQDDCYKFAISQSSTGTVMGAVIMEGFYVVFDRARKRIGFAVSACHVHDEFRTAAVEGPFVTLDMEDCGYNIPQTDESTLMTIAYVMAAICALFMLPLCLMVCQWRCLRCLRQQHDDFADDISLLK

Structure (SMILES): CC(C)(C)COc1ccc2c(c1)[C@@]1(COC(N)=N1)c1cc(-c3ccc(F)nc3)cnc1O2 [compound 868]
IC50 (BACE1 [1]; Table IV, class symbols): < 0.1 µM
IC50 (BACE1 [2]; Table IV, class symbols): < 0.1 µM

Structure (SMILES): COC(C)(C)COc1ccc2c(c1)[C@]1(COC(N)=N1)c1cc(C#CC3CC3)ccc1O2 [compound 982]
IC50 (BACE1 [1]): < 0.1 µM
IC50 (BACE1 [2]): 0.1 to 1 µM

Structure (SMILES): N#Cc1ccc(-c2ccc3c(c2)[C@]2(COC(N)=N2)c2cc(-c4cccnc4)ccc2O3)cc1 [compound 204]
IC50 (BACE1 [1]; Table III, IC50's in uM ranges): < 0.1 µM
IC50 (BACE1 [2]; Table III, IC50's in uM ranges): < 0.1 µM

Structure (SMILES): NC1=N[C@@]2(CO1)c1cc(-c3cccc(F)c3)ccc1Oc1cnc(C3=CCOCC3)cc12 [compound 485]
IC50 (BACE1 [1]): < 0.1 µM
IC50 (BACE1 [2]; HEK cells): < 0.1 µM

Structure (SMILES): Cc1cc(-c2ccc3c(c2)[C@]2(COC(N)=N2)c2cc(-c4cccnc4)ccc2O3)cc(=O)o1 [compound 390]
IC50 (BACE1 [1]; [3]): < 0.1 µM
IC50 (BACE1 [2]; [4]): < 0.1 µM

Structure (SMILES): NC1=N[C@@]2(CO1)c1cc(Br)ccc1Oc1ccc(/C=C/C(=O)O)cc12 [compound 919]
IC50 (BACE1 [1]; Table IV, class symbols): 1 to 5 µM
IC50 (BACE1 [2]; Table IV, class symbols): > 5 µM

Structure (SMILES): CC(C)(O)C#Cc1ccc2c(c1)C1(COC(N)=N1)c1cc(C#CC(C)(C)O)cnc1O2 (stereo not drawn) [Example 114, 4,4′-(−2′-aminospiro[chromeno[2,3-b]pyridine-5,4′-[1,3]oxazole]-3,7-diyl)bis(2-methyl-3-butyn-2-ol)]
IC50 (BACE1 [1]; Table III, IC50's in uM ranges): 0.1 to 1 µM
IC50 (BACE1 [2]; Table III, IC50's in uM ranges): 0.1 to 1 µM

Structure (SMILES): CC(C)(C#N)COc1cnc2c(c1)[C@]1(COC(N)=N1)c1cc(-c3ccccc3)ccc1O2 [compound 409]
IC50 (BACE1 [1]; [3]): < 0.1 µM
IC50 (BACE1 [2]; [4]): 0.1 to 1 µM

Structure (SMILES): COC(C)(C)C#Cc1cc(F)c2c(c1)[C@]1(COC(N)=N1)c1cc(-c3ccc(F)nc3)ccc1O2 [compound 646]
IC50 (BACE1 [1]; Table IV, class symbols): < 0.1 µM
IC50 (BACE1 [2]; Table IV, class symbols): < 0.1 µM

Structure (SMILES): CC(C)(C)CCOc1nccc2c1[C@]1(COC(N)=N1)c1cc(-c3cccnc3)ccc1O2 [compound 932]
IC50 (BACE1 [1]): 0.1 to 1 µM
IC50 (BACE1 [2]): 0.1 to 1 µM

Structure (SMILES): Cc1ccc(-c2ccc3c(c2)[C@]2(COC(N)=N2)c2cc(-c4cncnc4)ccc2O3)cc1 [compound 226]
IC50 (BACE1 [1]; Table III, IC50's in uM ranges): < 0.1 µM
IC50 (BACE1 [2]; Table III, IC50's in uM ranges): < 0.1 µM

Structure (SMILES): Cc1ccc(-c2ccc3c(c2)[C@]2(COC(N)=N2)c2cc(-c4cncnc4)ccc2O3)s1 [compound 820]
IC50 (BACE1 [1]; Table IV, class symbols): < 0.1 µM
IC50 (BACE1 [2]; Table IV, class symbols): < 0.1 µM

Structure (SMILES): NC1=N[C@@]2(CO1)c1cc(-c3cccnc3)ccc1Oc1cnc(N3CCC3)cc12 [compound 447]
IC50 (BACE1 [1]): < 0.1 µM
IC50 (BACE1 [2]; HEK cells): 0.1 to 1 µM

Structure (SMILES): CC(C)OC1CN(c2ccc3c(c2)[C@]2(COC(N)=N2)c2cc(-c4cccnc4)ccc2O3)C1 [compound 384]
IC50 (BACE1 [1]; [3]): < 0.1 µM
IC50 (BACE1 [2]; [4]): < 0.1 µM

Structure (SMILES): NC1=N[C@@]2(CO1)c1cc(-c3ccccc3F)ccc1Oc1ncc(N3CCOCC3)cc12 [compound 460]
IC50 (BACE1 [1]): < 0.1 µM
IC50 (BACE1 [2]; HEK cells): 0.1 to 1 µM

Structure (SMILES): NC1=N[C@@]2(CO1)c1cc(-c3cccnc3)ccc1Oc1c(F)cc(OCC(=O)C3CC3)cc12 [compound 387]
IC50 (BACE1 [1]; [3]): < 0.1 µM
IC50 (BACE1 [2]; [4]): < 0.1 µM

Other lines, results leading:

IC50 (BACE1 [1]; Table IV, class symbols): < 0.1 µM
IC50 (BACE1 [2]; Table IV, class symbols): < 0.1 µM
Structure (SMILES): NC1=N[C@@]2(CO1)c1cc(-c3cccnc3)ccc1Oc1ccc(-c3cncs3)cc12 [compound 660]

IC50 (BACE1 [1]): < 0.1 µM
IC50 (BACE1 [2]): 0.1 to 1 µM
Structure (SMILES): COC(=O)/C=C/c1ccc2c(c1)[C@]1(COC(N)=N1)c1cc(-c3cncnc3)ccc1O2 [compound 993]

IC50 (BACE1 [1]): 0.1 to 1 µM
IC50 (BACE1 [2]): 1 to 5 µM
Structure (SMILES): CCCOc1cc2c(cc1F)Oc1ccc(-c3cncnc3)cc1[C@]21COC(N)=N1 [compound 941]

IC50 (BACE1 [1]; Table IV, class symbols): 1 to 5 µM
IC50 (BACE1 [2]; Table IV, class symbols): 0.1 to 1 µM
Structure (SMILES): NC1=N[C@]2(CO1)c1cc(-c3cncnc3)ccc1Oc1c(F)cc(C3=CCOCC3)cc12 [compound 637]

IC50 (BACE1 [1]; Table 1): 1 to 5 µM
IC50 (BACE1 [2]; Table 1, Aβ40, 24 h incubation): 1 to 5 µM
Structure (SMILES): COc1ccc2c(c1)C1(COC(N)=N1)c1cc(-c3cccc(OC)c3F)ccc1O2 (stereo not drawn) [Example 17, 2′-(2-fluoro-3-methoxyphenyl)-7′-methoxyspiro[1,3-oxazole-4,9′-xanthen]-2-amine]

IC50 (BACE1 [1]): < 0.1 µM
IC50 (BACE1 [2]): < 0.1 µM
Structure (SMILES): NC1=N[C@@]2(CO1)c1cc(-c3cccnc3)ccc1Oc1ccc(-c3ccsc3)cc12 [compound 672]

IC50 (BACE1 [1]; Table 1): > 5 µM
IC50 (BACE1 [2]; Table 1, Aβ40, 24 h incubation): > 5 µM
Structure (SMILES): COc1ccc2c(c1)C1(COC(N)=N1)c1cc(Br)ccc1O2 (stereo not drawn) [Example 35, 2′-bromo-7′-methoxyspiro[1,3-oxazole-4,9′-xanthen]-2-amine]

IC50 (BACE1 [1]; Table IV, class symbols): > 5 µM
IC50 (BACE1 [2]; Table IV, class symbols): 1 to 5 µM
Structure (SMILES): NC1=N[C@@]2(CO1)c1cc(-c3ccc4nccn4c3)ccc1Oc1ncccc12 [compound 572]
